Activity calls are given as the source filed them.
Assays:
[1] = target: T1, High affinity choline transporter 1 (Homo sapiens, UniProt Q9GZV3); assay: human choline transporter blockers, potency – cell-based, 5-point CRC, membrane potential dye, dose response (AID 504840); assay type: functional
T1 sequence (Q9GZV3 whole entry): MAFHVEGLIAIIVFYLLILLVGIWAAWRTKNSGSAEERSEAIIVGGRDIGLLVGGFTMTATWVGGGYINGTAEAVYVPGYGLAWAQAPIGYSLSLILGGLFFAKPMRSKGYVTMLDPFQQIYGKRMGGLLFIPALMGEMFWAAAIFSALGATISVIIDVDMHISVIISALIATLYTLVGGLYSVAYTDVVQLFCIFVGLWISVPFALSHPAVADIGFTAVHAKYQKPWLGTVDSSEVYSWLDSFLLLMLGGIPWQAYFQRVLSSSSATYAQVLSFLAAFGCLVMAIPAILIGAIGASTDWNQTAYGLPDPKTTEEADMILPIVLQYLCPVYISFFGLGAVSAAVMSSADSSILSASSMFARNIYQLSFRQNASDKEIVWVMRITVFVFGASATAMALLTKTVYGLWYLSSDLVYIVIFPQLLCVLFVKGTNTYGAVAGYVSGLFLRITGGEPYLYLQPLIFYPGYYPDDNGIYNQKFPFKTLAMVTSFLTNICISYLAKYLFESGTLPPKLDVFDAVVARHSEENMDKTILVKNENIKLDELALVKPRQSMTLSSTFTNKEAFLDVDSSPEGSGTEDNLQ

[2] = target: T2, Short transient receptor potential channel 4 (Mus musculus, UniProt Q9QUQ5); assay: calcium entry via TRPC4 opening agents – cell-based, HEK293 TRPC4/mu-opioid, Fluo-4 calcium, dose response (AID 434937); assay type: functional
T2 sequence (Q9QUQ5 whole entry): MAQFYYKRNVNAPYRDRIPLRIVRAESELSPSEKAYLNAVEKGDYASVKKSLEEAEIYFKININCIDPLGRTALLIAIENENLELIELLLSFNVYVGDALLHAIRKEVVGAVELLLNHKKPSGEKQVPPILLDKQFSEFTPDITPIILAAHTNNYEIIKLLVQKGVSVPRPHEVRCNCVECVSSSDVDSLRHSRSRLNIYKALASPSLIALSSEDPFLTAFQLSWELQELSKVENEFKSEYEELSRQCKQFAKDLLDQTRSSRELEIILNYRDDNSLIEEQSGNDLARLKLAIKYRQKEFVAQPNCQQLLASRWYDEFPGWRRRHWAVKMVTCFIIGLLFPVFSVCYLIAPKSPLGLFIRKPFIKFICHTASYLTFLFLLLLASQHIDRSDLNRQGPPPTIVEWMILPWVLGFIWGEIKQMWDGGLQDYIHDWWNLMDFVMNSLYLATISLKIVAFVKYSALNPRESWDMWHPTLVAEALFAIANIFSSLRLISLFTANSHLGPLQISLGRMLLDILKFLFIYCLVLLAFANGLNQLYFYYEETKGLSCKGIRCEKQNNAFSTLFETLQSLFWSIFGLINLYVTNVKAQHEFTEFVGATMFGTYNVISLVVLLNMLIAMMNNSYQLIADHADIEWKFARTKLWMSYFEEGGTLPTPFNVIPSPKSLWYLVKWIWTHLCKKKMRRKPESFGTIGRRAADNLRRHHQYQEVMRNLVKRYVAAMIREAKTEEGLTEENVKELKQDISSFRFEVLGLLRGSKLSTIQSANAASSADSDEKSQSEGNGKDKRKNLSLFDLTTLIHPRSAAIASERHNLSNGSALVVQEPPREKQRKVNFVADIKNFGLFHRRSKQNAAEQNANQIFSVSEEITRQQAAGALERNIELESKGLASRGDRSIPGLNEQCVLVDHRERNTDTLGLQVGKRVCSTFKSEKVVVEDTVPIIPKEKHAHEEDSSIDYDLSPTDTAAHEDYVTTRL

[3] = Trypanosoma cruzi growth suppression in host cells – NIH3T3 host cells, beta-gal luminescence, confirmation (AID 2044); assay type: functional, cell-based;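 further: intracellular parasites grown in NIH/3T3 mouse fibroblasts as host cells; luminescent beta-galactosidase reporter signal from transgenic T. cruzi replicating inside host cells; inhibitors lower the luminescence signal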
[4] = NIH3T3 cell viability loss – ATP luminescence, mouse fibroblasts, counter-screen, dose response (AID 2010); assay type: functional, cell-based;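 further: cells exposed to compound for about 90 hours before reading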
[5] = system: INS1; assay: INS-1E survival protection against cytokine death – cell-based, luminescence, retest, dose response (AID 449756); assay type: functional; conditions: Rattus norvegicus;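 further: cell death triggered by IL-1 beta plus TNF-alpha plus IFN-gamma mixture; protective hits raise ATP signal compared with cytokine alone wells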
[6] = blockers of HIV-1 ZM109 envelope-driven cell-cell fusion – HeLa effector, CEM target cells, luciferase, cherry-pick, dose response (AID 652058); assay type: functional, cell-based;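 further: luciferase signal from HIV-1 Env mediated cell-cell fusion of effector and target cells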
[7] = HIV-1 AD8 envelope cell-cell fusion blockers – cherry-pick, dose response (AID 652062); assay type: functional, cell-based;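 further: luciferase signal from cell-cell fusion driven by HIV-1 clade B AD8 Env; potency is for inhibitors of fusion seen as a drop in luminescence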
[8] = target: FAD-linked sulfhydryl oxidase ALR (Homo sapiens, UniProt P55789); assay: ALR-catalysed DTT oxidation blockers – biochemical, H2O2 detection, luminescence, cherry-pick, dose response (AID 493248)
[9] = target: Fatty acid synthase (Homo sapiens, UniProt P49327); assay: inhibition of human FAS-TE enzyme activity – biochemical, kinetic fluorescence intensity, dose response (AID 624326); assay type: functional;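 further: rate of fluorescence rise from hydrolysis of a fluorogenic O-methyl fluorescein ester substrate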
[10] = target: T3, Corticotropin-releasing factor receptor 2/Corticotropin-releasing factor-binding protein (Homo sapiens, UniProt P24387+Q13324); assay: activators of CRF receptor 2 with binding protein – uHTS hits, confirmation (AID 602473); assay type: functional; conditions: read-out: EC50_Mean
T3 sequence (Q13324 whole entry): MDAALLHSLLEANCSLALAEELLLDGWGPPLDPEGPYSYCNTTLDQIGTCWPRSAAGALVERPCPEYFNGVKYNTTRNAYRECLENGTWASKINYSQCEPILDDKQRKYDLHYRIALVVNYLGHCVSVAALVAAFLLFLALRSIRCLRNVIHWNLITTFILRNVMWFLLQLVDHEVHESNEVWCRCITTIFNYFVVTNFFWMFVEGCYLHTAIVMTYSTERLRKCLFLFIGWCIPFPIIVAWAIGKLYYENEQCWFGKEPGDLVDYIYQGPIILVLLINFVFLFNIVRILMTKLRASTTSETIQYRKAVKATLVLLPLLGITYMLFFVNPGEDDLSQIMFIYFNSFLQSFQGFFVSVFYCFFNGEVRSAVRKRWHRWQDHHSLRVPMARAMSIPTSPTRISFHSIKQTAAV
T3 sequence (P24387 whole entry): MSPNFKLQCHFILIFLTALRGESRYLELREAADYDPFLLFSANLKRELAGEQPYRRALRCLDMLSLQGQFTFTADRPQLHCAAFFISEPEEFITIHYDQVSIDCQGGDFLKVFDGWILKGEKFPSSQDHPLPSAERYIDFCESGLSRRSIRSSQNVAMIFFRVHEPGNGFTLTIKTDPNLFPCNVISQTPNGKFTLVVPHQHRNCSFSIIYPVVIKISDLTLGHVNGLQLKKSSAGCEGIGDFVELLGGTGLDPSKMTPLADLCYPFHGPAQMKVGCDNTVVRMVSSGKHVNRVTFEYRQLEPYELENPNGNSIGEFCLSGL

[11] = system: Streptococcus sp. 'group A'; assay: Streptococcus pyogenes SK(-)GAS viability under kanamycin – luminescence, BacTiterGlo, confirmation, counter-screen for streptokinase expression inhibitor project, dose response (AID 1900); assay type: functional, organism-based
[12] = target: T4, Streptokinase A (Streptococcus pyogenes serotype M1, UniProt P10520); assay: viability-normalized secreted streptokinase activity reduction – plasminogen activation absorbance, OD405, dose response (AID 1914); assay type: functional, Streptococcus pyogenes M1 GAS;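 further: secreted streptokinase activity via plasminogen activation per viability signal from cell pellet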
T4 sequence (P10520 whole entry): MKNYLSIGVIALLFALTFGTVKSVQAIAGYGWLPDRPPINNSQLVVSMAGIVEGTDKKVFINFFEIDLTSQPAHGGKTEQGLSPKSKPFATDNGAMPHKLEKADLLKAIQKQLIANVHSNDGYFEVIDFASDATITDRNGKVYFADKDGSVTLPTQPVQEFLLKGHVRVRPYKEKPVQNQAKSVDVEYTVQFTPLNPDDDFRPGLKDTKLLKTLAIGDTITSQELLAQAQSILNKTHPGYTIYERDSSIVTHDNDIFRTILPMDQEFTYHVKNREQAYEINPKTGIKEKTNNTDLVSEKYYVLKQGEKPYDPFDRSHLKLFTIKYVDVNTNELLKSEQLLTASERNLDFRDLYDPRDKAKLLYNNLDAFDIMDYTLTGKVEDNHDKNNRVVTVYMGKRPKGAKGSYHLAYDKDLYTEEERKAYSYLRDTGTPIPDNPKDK

[13] = system: Streptococcus; assay: GAS UMAA2166 growth inhibition – luminescence, BacTiterGlo, counter-screen for streptokinase expression inhibitor project, dose response (AID 1915); assay type: functional, organism-based;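 further: potency for reduction of bacterial viability or growth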
[14] = Luminescence Cell-Based Dose Confirmation HTS to Identify Activators of 5'UTR Stem-Loop Driven Alpha-Synuclein mRNA Translation in H4 Neuroglioblastoma Cells. [Related pubchem assays: 1829 (Project Summary), 1814 (Primary HTS)]; assay type: functional
[15] = Luminescence Cell-Based Dose Response HTS to Identify Activators of Luciferase Translation or Activity in H4 […] Cells. [Related pubchem assays: 1829 (Project Summary), 1814 (Primary HTS)]; assay type: functional
[16] = system: H4; assay: Luminescence Cell-Based Dose Response HTS to Identify Activators of 5'UTR Stem-Loop Driven Prion Protein mRNA Translation in H4 Neuroglioblastoma Cells. [Related pubchem assays: 1829 (Project Summary), 1814 (Primary HTS)]; assay type: functional; conditions: Homo sapiens
[17] = target: T5, Heat shock factor protein 1 (Mus musculus, UniProt P38532); assay: enhancement of HSF1-driven luciferase signal – cell-based, NIH3T3, luminescence, dose retest, confirmation (AID 435004); assay type: functional;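 further: stress induced by proteasome inhibitor MG132 added 30 min after compound; luciferase reporter driven by HSF1 response element in NIH3T3 cells; actives raise luminescence as potentiators of the MG132 stress response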
T5 sequence (P38532 whole entry): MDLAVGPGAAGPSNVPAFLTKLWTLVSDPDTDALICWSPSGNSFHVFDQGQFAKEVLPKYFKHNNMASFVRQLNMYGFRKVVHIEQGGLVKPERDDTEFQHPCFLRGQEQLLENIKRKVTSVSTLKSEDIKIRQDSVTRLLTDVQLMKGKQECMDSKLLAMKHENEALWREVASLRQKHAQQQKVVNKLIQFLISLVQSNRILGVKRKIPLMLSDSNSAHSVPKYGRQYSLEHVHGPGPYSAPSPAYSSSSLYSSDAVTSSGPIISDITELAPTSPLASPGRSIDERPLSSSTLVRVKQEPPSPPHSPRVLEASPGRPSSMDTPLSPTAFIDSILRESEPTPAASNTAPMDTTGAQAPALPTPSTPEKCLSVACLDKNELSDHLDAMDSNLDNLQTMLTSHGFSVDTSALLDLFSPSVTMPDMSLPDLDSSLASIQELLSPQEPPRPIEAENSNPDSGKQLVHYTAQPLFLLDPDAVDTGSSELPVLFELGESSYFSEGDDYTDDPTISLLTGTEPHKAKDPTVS

Sequence of Fatty acid synthase (P49327 whole entry): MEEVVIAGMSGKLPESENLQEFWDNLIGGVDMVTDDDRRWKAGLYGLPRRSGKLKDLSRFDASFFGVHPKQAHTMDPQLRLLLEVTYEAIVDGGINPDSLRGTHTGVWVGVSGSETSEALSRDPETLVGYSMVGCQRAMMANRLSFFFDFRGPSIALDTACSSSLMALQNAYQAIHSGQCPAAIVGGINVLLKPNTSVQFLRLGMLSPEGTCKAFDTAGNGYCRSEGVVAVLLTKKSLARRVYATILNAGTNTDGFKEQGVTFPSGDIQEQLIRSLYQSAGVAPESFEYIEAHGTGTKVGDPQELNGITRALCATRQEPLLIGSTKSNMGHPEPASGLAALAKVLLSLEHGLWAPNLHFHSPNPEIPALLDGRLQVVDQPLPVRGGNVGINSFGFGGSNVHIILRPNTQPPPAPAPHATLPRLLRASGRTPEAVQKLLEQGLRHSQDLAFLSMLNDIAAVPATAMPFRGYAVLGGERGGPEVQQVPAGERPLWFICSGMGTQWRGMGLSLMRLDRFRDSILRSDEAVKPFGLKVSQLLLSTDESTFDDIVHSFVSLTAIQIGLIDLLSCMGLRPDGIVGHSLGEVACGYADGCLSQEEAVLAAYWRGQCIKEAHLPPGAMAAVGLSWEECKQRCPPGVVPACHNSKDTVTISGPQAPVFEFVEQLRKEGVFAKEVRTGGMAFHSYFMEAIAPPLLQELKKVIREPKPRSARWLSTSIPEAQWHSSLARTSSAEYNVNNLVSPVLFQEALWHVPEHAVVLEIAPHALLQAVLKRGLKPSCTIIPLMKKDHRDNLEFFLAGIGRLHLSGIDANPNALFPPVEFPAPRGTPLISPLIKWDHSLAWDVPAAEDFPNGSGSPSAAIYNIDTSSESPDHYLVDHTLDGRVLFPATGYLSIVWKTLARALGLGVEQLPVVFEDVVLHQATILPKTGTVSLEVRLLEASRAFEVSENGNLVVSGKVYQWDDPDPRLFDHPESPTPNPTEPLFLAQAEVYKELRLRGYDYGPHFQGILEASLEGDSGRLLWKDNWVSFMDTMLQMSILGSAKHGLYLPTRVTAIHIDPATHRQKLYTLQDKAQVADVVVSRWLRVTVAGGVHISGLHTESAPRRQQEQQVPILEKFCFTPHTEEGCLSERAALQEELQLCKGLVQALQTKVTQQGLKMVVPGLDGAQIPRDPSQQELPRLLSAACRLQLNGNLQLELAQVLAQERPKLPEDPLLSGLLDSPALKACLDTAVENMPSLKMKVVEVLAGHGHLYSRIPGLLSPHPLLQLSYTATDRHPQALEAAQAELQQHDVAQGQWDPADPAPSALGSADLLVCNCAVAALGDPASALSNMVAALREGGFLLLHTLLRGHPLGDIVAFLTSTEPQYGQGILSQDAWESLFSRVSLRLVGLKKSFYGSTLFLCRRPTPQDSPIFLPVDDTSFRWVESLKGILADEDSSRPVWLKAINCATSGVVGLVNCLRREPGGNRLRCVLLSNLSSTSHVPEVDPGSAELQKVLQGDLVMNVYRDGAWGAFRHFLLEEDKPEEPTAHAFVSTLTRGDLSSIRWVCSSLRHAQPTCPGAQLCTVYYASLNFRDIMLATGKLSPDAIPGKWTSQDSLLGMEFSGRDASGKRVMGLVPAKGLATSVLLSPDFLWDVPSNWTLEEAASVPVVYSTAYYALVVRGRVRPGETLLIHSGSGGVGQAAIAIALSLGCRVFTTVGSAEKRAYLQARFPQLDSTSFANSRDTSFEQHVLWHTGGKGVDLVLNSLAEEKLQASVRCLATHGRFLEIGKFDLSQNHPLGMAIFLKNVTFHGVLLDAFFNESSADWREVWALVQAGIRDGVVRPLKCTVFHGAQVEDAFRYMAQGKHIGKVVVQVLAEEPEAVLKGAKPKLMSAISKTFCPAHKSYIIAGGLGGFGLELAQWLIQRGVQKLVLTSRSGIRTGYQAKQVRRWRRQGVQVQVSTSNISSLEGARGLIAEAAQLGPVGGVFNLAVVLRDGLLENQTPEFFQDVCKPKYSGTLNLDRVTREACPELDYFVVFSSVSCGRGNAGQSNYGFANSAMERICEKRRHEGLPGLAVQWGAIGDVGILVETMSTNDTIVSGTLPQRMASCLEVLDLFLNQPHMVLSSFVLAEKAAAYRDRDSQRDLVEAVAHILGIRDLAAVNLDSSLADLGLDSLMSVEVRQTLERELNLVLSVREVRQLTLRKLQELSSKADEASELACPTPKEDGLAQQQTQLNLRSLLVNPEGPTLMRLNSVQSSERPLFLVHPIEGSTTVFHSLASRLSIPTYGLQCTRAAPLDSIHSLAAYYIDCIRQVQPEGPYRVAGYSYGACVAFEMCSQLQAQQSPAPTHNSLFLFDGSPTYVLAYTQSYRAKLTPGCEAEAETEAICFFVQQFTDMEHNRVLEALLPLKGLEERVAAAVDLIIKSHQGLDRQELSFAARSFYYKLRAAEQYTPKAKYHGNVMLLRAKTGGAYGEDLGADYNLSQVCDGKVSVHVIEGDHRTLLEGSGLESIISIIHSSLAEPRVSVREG
Sequence of FAD-linked sulfhydryl oxidase ALR (P55789 whole entry): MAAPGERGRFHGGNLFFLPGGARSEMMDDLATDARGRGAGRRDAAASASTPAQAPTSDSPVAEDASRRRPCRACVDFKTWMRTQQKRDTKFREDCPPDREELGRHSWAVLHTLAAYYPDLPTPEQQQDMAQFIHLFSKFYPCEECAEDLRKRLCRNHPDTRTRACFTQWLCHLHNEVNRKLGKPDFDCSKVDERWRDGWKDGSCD

Compound: Cc1ccc(C(=O)Nc2ccc(S(=O)(=O)NC3=NCCCCC3)cc2)c(C)c1
- IC50 [1]: 10.8 µM (active)

Compound: Cc1noc(C)c1S(=O)(=O)N1CCC(C(=O)NCCCN2CC(C)CC(C)C2)CC1 (stereo not given)
- EC50 [2]: 0.473 µM (active)

Compound: c1ccc2c(CN3CCCCCCC3)c[nH]c2c1
- EC50 [3]: 1.15 µM (active)
- EC50 [4]: > 30 µM (not active)
- IC50 [1]: 12.6 µM (active)
- AC50 [5]: 4.22 µM (active)

Compound: CCCNC(=O)N1[C@H](C#N)[C@H](c2ccc(-c3ccc(C(=O)N(C)C)cc3)cc2)[C@@H]1CO
- AC50 [6]: 32.8 µM (active)
- AC50 [7]: 0.784 µM (active)

Compound: Cc1ccc2nc3c(O)n(CCc4c[nH]cn4)cnc-3c2c1
- EC50 [2]: 1.88 µM (active)

Compound: CCn1c(N2CCN(CC(=O)Nc3cccc(C)c3C)CC2)nc2ccccc21
- EC50 [2]: 2.11 µM (active)

Compound: COc1ccccc1Nc1ncnc2ccc(C)cc12
- IC50 [1]: 13.8 µM (active)

Compound: Sc1n[nH]c(-c2cc(Cl)cc(Cl)c2)n1
- AC50 [8]: 1.72 µM (active)
- IC50 [1]: 10.5 µM (active)

Compound: CCN(CC(=O)Nc1cccc(OC)c1)c1ncnc2sc(C)c(C)c12
- IC50 [1]: 7.24 µM (active)

Compound: CN(C)CCN(C(=O)c1cccc2ccccc12)c1nc2cc3c(cc2s1)OCO3
- EC50 [2]: 5.96 µM (active)

Compound: O=C(c1cc2c(nc1O)CCCC2)N1CCc2c([nH]c3ccccc23)C1c1ccccc1F (stereo not given)
- IC50 [1]: 19.1 µM (active)

Compound: CC(C)N(C)CCOC(=O)C1COc2ccccc2O1 (stereo not given)
- IC50 [1]: 13.8 µM (active)

Compound: CCCc1cc(C(=O)Nc2cccc([N+](=O)[O-])c2)cs1
- IC50 [9]: 8.66 µM (active)

Compound: O=C(CSc1nc2ccccc2[nH]1)c1ccc2c(c1)OCO2
- IC50 [1]: 10 µM (active)

Compound: Cn1c2ccccc2c(=O)c2c(=O)n(C3CCCCC3)c(-c3ccco3)nc21
- EC50 [2]: 4.73 µM (active)
- EC50 [10]: 8.22 µM (active)

Compound: O=C(NC(=S)NNC(=O)c1ccccc1[N+](=O)[O-])c1ccc(Br)cc1
- EC50 [11]: 4.24 µM (active)
- EC50 [12]: > 150 µM (not active)
- EC50 [13]: 11.6 µM (active)
- EC50 [2]: 11.9 µM (active)

Compound: Cc1ccc(Nc2nc(CSc3nnc(-c4ccc(F)cc4)n3C)cs2)cc1
- EC50 [14]: 17.2 µM (active)
- EC50 [15]: 16.9 µM (active)
- EC50 [16]: 15 µM (active)
- IC50 [1]: 15.8 µM (active)

Compound: CCOc1ncccc1C(=O)NCC(c1ccccc1)N(C)C (stereo not given)
- EC50 [2]: 1.19 µM (active)

Compound: C=C(C)CN(CC)c1nc(N)c2c(N)nc3c(c2c1C#N)CC(=O)N3C12CC3CC(CC(C3)C1)C2
- EC50 [3]: 1.69 µM (active)
- EC50 [4]: > 60 µM (not active)
- EC50 [17]: > 260 µM (inactive)
- AC50 [6]: 7.36 µM (active)

Compound: CCCc1cc(Nc2c(C)n(C)n(-c3ccccc3)c2=O)n2c(nc3ccccc32)c1C#N
- IC50 [1]: 13.8 µM (active)

From ChEMBL document CHEMBL1201862, “PubChem BioAssay data set” (2004)
